According to US20240366589A1, “NHE3-BINDING COMPOUNDS AND METHODS FOR INHIBITING PHOSPHATE TRANSPORT” (Ardelyx, Inc., priority 2013, published 2024):

Key:
[1] = tested on: absorption of sodium from the intestinal lumen; assay: Fecal form score (FFS) 16 h after oral dose in rats; assay type: in vivo, rat; settings: oral gavage, 16 h post-dose, scale 1-5
Method in brief: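 Eight-week-old Sprague-Dawley rats (n=6) dosed by oral gavage with compound or water vehicle between 4 and 5 PM, then housed in metabolic cages with food and water ad libitum. At 16 h, fecal form scored 1 (normal pellet) to 5 (liquid streams) by two observers; group mean reported.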

[2] = tested on: absorption of sodium from the intestinal lumen; assay: Inhibition of intestinal sodium absorption: urinary sodium (uNa) 16 h after single oral dose in rats; assay type: in vivo, rat; settings: oral gavage, 16 h post-dose
Method in brief: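 Eight-week-old Sprague-Dawley rats (n=6) given single oral gavage of compound or water vehicle in the late afternoon, then kept in metabolic cages with chow and water ad libitum. Urine collected over 16 h; sodium quantified by ion chromatography and expressed as % of vehicle mean, compared by one-way ANOVA with Dunnett's test.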

Rat NHE3 = target: T1, Rat NHE3 (Rattus norvegicus, UniProt P26433); assay: Cell-based NHE3 activity under prompt conditions (OK cells, BCECF pH recovery), rat NHE3; settings: prompt conditions
T1 construct: expressed in transfected cells; host or cells: Opossum kidney (OK) cells (ATCC), electroporation
Method in brief: (§1)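 OK cells electroporated with rat or human NHE3 gene, loaded 30 min at room temperature with 5 μM BCECF-AM in NH4Cl-HEPES pH 7.4.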

Human NHE3 = target: T2, Human NHE3 (Homo sapiens, UniProt P48764); assay: Cell-based NHE3 activity under prompt conditions (OK cells, BCECF pH recovery), human NHE3; settings: prompt conditions
T2 construct: expressed in transfected cells; host or cells: Opossum kidney (OK) cells (ATCC), electroporation
T2 sequence (P48764 26-834): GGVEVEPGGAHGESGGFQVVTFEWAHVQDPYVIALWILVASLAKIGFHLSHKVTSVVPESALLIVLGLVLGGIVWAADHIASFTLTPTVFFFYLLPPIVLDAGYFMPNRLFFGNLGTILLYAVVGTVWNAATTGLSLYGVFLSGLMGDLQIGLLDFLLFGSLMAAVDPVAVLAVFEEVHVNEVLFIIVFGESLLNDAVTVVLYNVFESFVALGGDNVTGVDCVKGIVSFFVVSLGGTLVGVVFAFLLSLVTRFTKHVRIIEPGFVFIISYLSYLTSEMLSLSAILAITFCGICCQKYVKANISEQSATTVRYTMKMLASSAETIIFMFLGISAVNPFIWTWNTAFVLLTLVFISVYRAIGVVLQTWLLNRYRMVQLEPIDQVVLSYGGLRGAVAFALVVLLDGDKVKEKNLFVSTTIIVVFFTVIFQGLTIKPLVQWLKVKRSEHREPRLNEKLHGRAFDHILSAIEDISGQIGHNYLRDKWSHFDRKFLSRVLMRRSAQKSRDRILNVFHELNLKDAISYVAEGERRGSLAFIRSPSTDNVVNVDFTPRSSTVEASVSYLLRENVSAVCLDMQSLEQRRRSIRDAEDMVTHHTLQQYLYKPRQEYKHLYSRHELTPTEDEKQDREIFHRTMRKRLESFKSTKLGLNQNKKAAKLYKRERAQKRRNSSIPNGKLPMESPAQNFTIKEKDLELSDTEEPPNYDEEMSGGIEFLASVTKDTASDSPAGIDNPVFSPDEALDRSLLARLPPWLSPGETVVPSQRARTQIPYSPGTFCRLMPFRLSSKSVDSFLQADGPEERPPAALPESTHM
Method in brief: as §1

[3] = tested on: phosphorus and calcium levels in the urine of rats; assay: Urinary excretion of phosphate and calcium in rats (16 h overnight urine); assay type: in vivo, rat; settings: rats, oral gavage, 16 h post-dose

T1 sequence (P26433 29-831): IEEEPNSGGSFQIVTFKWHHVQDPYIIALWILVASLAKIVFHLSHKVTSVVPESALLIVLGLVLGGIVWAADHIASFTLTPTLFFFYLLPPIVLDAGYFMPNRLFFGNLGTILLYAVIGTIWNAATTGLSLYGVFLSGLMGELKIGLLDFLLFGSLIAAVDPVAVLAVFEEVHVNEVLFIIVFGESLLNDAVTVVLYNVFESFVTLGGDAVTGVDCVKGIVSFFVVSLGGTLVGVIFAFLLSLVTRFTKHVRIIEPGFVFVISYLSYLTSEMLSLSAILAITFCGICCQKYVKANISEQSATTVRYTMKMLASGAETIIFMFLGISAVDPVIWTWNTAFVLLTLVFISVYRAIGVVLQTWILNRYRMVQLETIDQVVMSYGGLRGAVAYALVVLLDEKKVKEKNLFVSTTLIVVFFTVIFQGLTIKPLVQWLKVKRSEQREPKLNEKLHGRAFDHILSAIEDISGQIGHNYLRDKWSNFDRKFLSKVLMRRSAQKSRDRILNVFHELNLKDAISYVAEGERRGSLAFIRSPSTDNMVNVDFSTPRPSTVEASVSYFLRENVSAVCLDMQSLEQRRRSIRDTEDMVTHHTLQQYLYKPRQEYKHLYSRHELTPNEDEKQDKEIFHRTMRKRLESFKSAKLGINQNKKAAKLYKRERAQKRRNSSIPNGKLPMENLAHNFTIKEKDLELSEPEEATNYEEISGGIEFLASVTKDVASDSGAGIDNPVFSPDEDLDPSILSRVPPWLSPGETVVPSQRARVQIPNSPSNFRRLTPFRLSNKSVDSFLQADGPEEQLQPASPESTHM

Compound	Fecal Form Score average ([1]; dose 10 mg/kg)	Urine Na % of control ([2]; dose 10 mg/kg) [%]	Prompt Rat NHE3 pIC50 (Rat NHE3)	Prompt Human NHE3 pIC50 (Human NHE3)	Urine P % of control ([3]; dose 10 mg/kg) [%]	Fecal Form Score average ([1]; dose 3 mg/kg)	Urine Na % of control ([2]; dose 3 mg/kg) [%]	IC50 (Rat NHE3; read-out: Prompt Rat NHE3 pIC50 (converted)) [µM]	Urine P % of control ([3]; dose 3 mg/kg) [%]	IC50 (Human NHE3; read-out: Prompt Human NHE3 pIC50 (converted)) [µM]
CN1Cc2c(Cl)cc(Cl)cc2[C@H](c2cccc(S(=O)(=O)NCCOCCOCCOCCn3cc(CN(Cc4cn(CCOCCOCCOCCNS(=O)(=O)c5cccc([C@@H]6CN(C)Cc7c(Cl)cc(Cl)cc76)c5)nn4)Cc4cnnn4CCOCCOCCOCCNS(=O)(=O)c4cccc([C@@H]5CN(C)Cc6c(Cl)cc(Cl)cc65)c4)nn3)c2)C1 [compound 73]	2	74	5.30	6.30	49					
CN1Cc2c(Cl)cc(Cl)cc2[C@H](c2cccc(S(=O)(=O)NCCOCCOCCN(C)C(=O)NCCCN(CCCNC(=O)N(C)CCOCCOCCNS(=O)(=O)c3cccc([C@@H]4CN(C)Cc5c(Cl)cc(Cl)cc54)c3)CCCNC(=O)N(C)CCOCCOCCNS(=O)(=O)c3cccc([C@@H]4CN(C)Cc5cc(Cl)cc(Cl)c54)c3)c2)C1 [compound 131]				7.20		2	38	0.794	68	
CN(C)[C@H]1Cc2c(Cl)cc(Cl)cc2[C@@H]1Oc1ccc(S(=O)(=O)NCCOCCOCCNC(=O)CCC(C)(CCC(=O)NCCOCCOCCNS(=O)(=O)c2ccc(O[C@H]3c4cc(Cl)cc(Cl)c4C[C@@H]3N(C)C)cc2)NC(=O)CCC(=O)O)cc1 [compound 179]			8.00	7.77		1	40		66	
O=C(NCCOCCOCCNS(=O)(=O)c1ccc(O[C@H]2c3ccccc3C[C@@H]2N2CCCCC2)cc1)c1ccc(C(=O)NCCOCCOCCNS(=O)(=O)c2ccc(O[C@H]3c4ccccc4C[C@@H]3N3CCCCC3)cc2)cc1 [compound 100]	1	57	8.10	8.30	68					
O=C(NCCCCNC(=O)NCCOCCOCCNS(=O)(=O)c1ccc(O[C@H]2c3ccccc3C[C@@H]2N2CCCC2)cc1)NCCOCCOCCNS(=O)(=O)c1ccc(O[C@H]2c3ccccc3C[C@@H]2N2CCCC2)cc1 [compound 99]	1	41	8.60		52					≥ 10
CN(C)[C@H]1Cc2c(Cl)cc(Cl)cc2[C@@H]1Oc1ccc(S(=O)(=O)NCCOCCOCCNC(=O)Nc2ccc(NC(=O)NCCOCCOCCNS(=O)(=O)c3ccc(O[C@H]4c5cc(Cl)cc(Cl)c5C[C@@H]4N(C)C)cc3)cc2)cc1 [compound 152]	1	26	<5.00	8.70	74					
O=C(O)CN(CCN(CC(=O)O)CC(=O)NCCOCCOCCOCCNS(=O)(=O)c1ccc(OC2c3ccccc3CC2N2CCCCC2)cc1)CC(=O)NCCOCCOCCOCCNS(=O)(=O)c1ccc(OC2c3ccccc3CC2N2CCCCC2)cc1 (stereo not drawn) [compound 49]	1	38	7.65	7.40	77					
CN1Cc2c(Cl)cc(Cl)cc2[C@H](c2cccc(S(=O)(=O)N(C)CCOCCOCCNC(=O)CCN(CCC(=O)NCCOCCOCCN(C)S(=O)(=O)c3cccc([C@@H]4CN(C)Cc5c(Cl)cc(Cl)cc54)c3)CCC(=O)NCCOCCOCCN(C)S(=O)(=O)c3cccc([C@@H]4CN(C)Cc5c(Cl)cc(Cl)cc54)c3)c2)C1 [compound 134]			6.50	6.50		1	64		72	
CN1Cc2c(Cl)cc(Cl)cc2[C@H](c2cccc(S(=O)(=O)NCCOCCOCCNC(=O)CCC(CCC(=O)NCCOCCOCCNS(=O)(=O)c3cccc([C@@H]4CN(C)Cc5c(Cl)cc(Cl)cc54)c3)(CCC(=O)NCCOCCOCCNS(=O)(=O)c3cccc([C@@H]4CN(C)Cc5c(Cl)cc(Cl)cc54)c3)NC(=O)NCCS(=O)(=O)O)c2)C1 [compound 157]			7.70	7.77		3	26		50	
